Source: ChEMBL document CHEMBL4177539, “Discovery of N-((3R,4R)-4-Fluoro-1-(6-((3-methoxy-1-methyl-1H-pyrazol-4-yl)amino)-9-methyl-9H-purin-2-yl)pyrrolidine-3-yl)acrylamide (PF-06747775) through Structure-Based Drug Design: A High Affinity Irreversible Inhibitor Targeting Oncogenic EGFR Mutants with Selectivity over Wild-Type EGFR” (J Med Chem, 2017)
pIC50: −log10 of the molar value.

Experiments:
[1] = species on record: Homo sapiens; assay: Selectivity index, ratio of IC50 for wild-type EGFR autophosphorylation in human A549 cells to IC50 for EGFR T790M/L858R double mutant autophosphorylation in human H1975 cells; format: cell-based
[2] = physchem; settings: octanol/water
[3] = target: Epidermal growth factor receptor (Homo sapiens, UniProt P00533)
Epidermal growth factor receptor, sequence (P00533 whole entry): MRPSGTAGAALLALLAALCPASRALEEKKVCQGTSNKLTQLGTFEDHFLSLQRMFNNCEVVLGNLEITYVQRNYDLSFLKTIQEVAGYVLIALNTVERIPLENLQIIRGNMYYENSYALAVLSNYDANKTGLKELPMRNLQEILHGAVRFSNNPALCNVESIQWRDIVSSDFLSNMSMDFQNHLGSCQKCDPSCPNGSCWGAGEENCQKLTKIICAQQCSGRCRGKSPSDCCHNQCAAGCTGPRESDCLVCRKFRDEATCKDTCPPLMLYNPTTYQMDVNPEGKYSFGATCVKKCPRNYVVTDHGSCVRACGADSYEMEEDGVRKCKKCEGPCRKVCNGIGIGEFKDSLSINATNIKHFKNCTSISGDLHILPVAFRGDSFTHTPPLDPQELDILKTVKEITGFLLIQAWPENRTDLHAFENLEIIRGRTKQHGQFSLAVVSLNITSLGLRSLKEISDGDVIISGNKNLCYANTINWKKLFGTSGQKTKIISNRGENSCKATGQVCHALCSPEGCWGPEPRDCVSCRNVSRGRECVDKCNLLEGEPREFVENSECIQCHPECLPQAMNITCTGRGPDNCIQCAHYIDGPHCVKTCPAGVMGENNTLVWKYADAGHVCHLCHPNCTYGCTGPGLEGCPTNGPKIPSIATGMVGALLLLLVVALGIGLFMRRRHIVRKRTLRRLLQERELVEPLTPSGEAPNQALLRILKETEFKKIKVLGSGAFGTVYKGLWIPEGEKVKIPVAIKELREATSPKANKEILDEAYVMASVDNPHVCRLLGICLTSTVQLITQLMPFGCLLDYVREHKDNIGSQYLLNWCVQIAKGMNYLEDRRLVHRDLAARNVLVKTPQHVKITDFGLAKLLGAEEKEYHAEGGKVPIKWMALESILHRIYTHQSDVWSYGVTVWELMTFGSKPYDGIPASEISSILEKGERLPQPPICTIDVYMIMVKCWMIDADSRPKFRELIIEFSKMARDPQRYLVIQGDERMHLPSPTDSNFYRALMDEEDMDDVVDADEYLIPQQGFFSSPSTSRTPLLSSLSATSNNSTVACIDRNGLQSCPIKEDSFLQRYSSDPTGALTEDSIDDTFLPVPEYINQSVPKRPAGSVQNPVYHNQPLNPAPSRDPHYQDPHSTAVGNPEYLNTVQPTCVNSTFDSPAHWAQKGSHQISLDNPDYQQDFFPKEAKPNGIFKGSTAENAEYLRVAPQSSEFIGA

logD [2]: 1.8
pIC50 [3]: < 5.00
SMILES: C=CC(=O)N1CC[C@H](Nc2nc(Nc3ccc(N4CCN(C)CC4)cc3)c3ncn(C(C)C)c3n2)C1
Ratio IC50 [1]: > 35
